{"source": "paper PMC6201930", "about": "(PLoS ONE, 2018)", "key": {"mouse cochlear explants": {"tested_on": "mouse cochlear explants", "set-up": "method as in PMID 24251786", "conditions": "obtained previously; cited from earlier work"}, "[1]": {"tested_on": "activated human peripheral blood mononuclear cells (PBMCs)", "assay": "Cytotoxicity in stimulated PBMCs (CellTitre-Glo ATP)", "conditions": "read-out: Stimulated PBMC CC50", "text": "(§1) When considering compounds for potential readthrough therapy it is important to monitor cellular and animal safety. In order to determine the most promising compounds to further evaluate in in vivo safety, we measured cytotoxicity in two different cell types. We used activated human peripheral blood mononuclear cells (PBMCs) (Table 2 and Fig 2D and 2E). PBMCs are a primary cell that when activated with phytohaemagglutinin (PHA) expand quickly and are commonly used as an in vitro surrogate for rapidly growing cells in the human body to evaluate cytotoxicity. Prior to advancing compounds into human studies, safety evaluation in rodents is performed. As an in vitro surrogate for rodent toxicity, we used primary mouse myoblasts.\nFrozen human Peripheral Blood Mononuclear Cells (PBMCs) were obtained from […] (Alameda, CA, Cat# PB003F) from a single donor. […] Plates were incubated at 37°C with 5% CO2 for 4 hours prior to compound treatment. Compounds were serially diluted and added to the plates. Plates were incubated at 37°C, 5% CO2 incubator, for 72 hours prior to determinations of ATP levels. Cell viability was determined using a chemiluminescent assay to monitor adenosine triphosphate (ATP) levels in live cells (CellTitre-Glo; CTG; Promega, Cat#G7571). Methods were performed per the manufacturer’s instructions."}, "[2]": {"tested_on": "p53 R213* UGA premature termination codon in HDQ-P1 mammary carcinoma cells", "assay": "HDQ-p53UGA213 readthrough assay (full-length p53, MSD immunoassay)", "format": "cell-based, human", "protocol": "We utilized HDQ-P1 mammary carcinoma cells, which are homozygous for R213*, a UGA premature termination codon in the gene for the tumor suppressor protein p53 [30]. […] Western blot hybridization and Meso Scale Discovery (MSD) immunoassay detection of p53 were done as previously described. […] Cells (45K per well) were grown in 96-well plates and treated with compounds for 24 hours. […] Cells were lysed with 60 μl per well of lysis buffer (20 mM Tris-HCL, pH 7.5, 1 mM EGTA, 1 mM EDTA,150 mM Nacl, 0.5% Triton X100) for one hour at room temperature and 30 μl of lysate per well were transferred to the coated plate and incubated overnight at 4 °C. […] Plates were then washed three times with PBS-T and 30 μl of 0.25 μ/ml goat anti-rabbit IgG-Sulfo-tag antibody (MSD) in TBS-C was added and incubated for 1 hour at room temperature. Plates were then washed three times with PBS-T and 150 μl read buffer (MSD) was added. Plates were read immediately in a SECTOR S 600 (MSD)."}, "primary mouse myoblasts": {"tested_on": "primary mouse myoblasts", "assay": "Cytotoxicity in myoblasts", "conditions": "read-out: Myoblast CC50", "text": "as §1"}, "[3]": {"tested_on": "fLuc mRNA harboring a UGA nonsense mutation at codon 190 (fLuc-190-NS)", "format": "biochemical, rabbit", "text": "ThefLuc-190-NS assay is an in vitro rabbit reticulocyte lysate translation of an fLuc mRNA harboring a UGA nonsense mutation at codon 190 (fLuc-190-NS). It is believed that positively charged aminoglycosides are poorly taken up by cells, and we used this cell-free readthrough assay to eliminate the potential variable of cell uptake when measuring readthrough potency. […] Readthrough protein was detected using a HA-HIS MSD immunoassay described previously.\nThis cell-free translation assay used synthetic LUC mRNAs harboring an EMCV IRES and LUC codon 190-UGA premature stop codon prepared using the MegaScript in vitro transcription kit (Ambion). Translation reactions were done with the Rabbit Reticulocyte Lysate System (Promega) with 100 ng RNA and increasing concentrations of aminoglycosides. The amount of luminescence produced was determined after approximately 4 hours using a Viewlux CCD imager (Perkin-Elmer). Fold suppression over background was calculated as (aminoglycoside light units/PBS light units)."}, "[4]": {"tested_on": "zebrafish neuromasts (hair cells)", "assay": "Neuromast toxicity assay (DASPEI staining)"}, "[5]": {"tested_on": "tGFP-CFTR542X-HA-HIS construct (codon 542 UGA) in 293H cells", "assay": "tGFP-542X readthrough assay (HA-HIS MSD immunoassay)", "format": "cell-based, human"}, "[6]": {"conditions": "individual determinations (S1 File)"}, "[7]": {"conditions": "individual experiments (S1 File)"}, "[8]": {"conditions": "AVERAGE (S1 File), unit not given for EC5X"}, "[9]": {"conditions": "individual experiments (S1 File), unit not printed for EC5X (EC2X of the sheet in uM)"}}, "note": "“And” between values parts separate entries of the source, which are not always exact repeats. Equal entries are not always repeated. Where two headings read alike, the source gives them in different places."}
{"smiles": "C[C@@H](O)C1O[C@H](O[C@@H]2C(N)C[C@@H](NC(=O)[C@@H](O)CCN)[C@@H](O)C2O[C@@H]2O[C@H](CN)[C@H](O)C2O)[C@@H](N)C(O)[C@@H]1O", "note": "(some centres unmarked) [NB84, reference compound]", "values": [{"measurement": "CC50", "setting": "mouse cochlear explants", "value": 20, "unit": "µM"}, {"measurement": "CC50", "setting": "[1]; AVERAGE (S1 File)", "value": 440, "unit": "µM"}, {"measurement": "CC50", "setting": "[1]; [6]", "value": "536 µM and 1160 µM and 179 µM and 156 µM and 173 µM"}, {"measurement": "HDQ-p53UGA213 EC2X", "setting": "[2]; AVERAGE (S1 File)", "value": 16.6, "unit": "µM"}, {"measurement": "HDQ-p53UGA213 max", "setting": "[2]; AVERAGE (S1 File)", "value": 29.7}, {"measurement": "HDQ-p53UGA213 EC2X", "setting": "[2]; concentration required to double the level of full-length p53 protein, average ± SD, at least three experiments, highest concentration 300 μM", "value": "17 ± 5", "unit": "µM"}, {"measurement": "HDQ-p53UGA213 EC2X", "setting": "[2]; [7]", "value": "20.31 µM and <15.63 µM and 17.59 µM and 8.82 µM and 19.52 µM"}, {"measurement": "HDQ-p53UGA213 max", "setting": "[2]; individual experiments (S1 File), max fold", "value": "15.6 and 52.2 and 25.2 and 30.9 and 25.4 and 29"}, {"measurement": "HDQ-p53UGA213 (Maxfold)", "setting": "[2]; maximum readthrough activity above background, average ± SD", "value": "30 ± 12", "unit": "fold"}, {"measurement": "CC50", "setting": "primary mouse myoblasts; AVERAGE (S1 File)", "value": 279, "unit": "µM"}, {"measurement": "CC50", "setting": "primary mouse myoblasts; [6]", "value": "411 µM and 147 µM"}, {"measurement": "fLuc-190-NS EC2X", "setting": "[3]; AVERAGE (S1 File)", "value": 0.0453, "unit": "µM"}, {"measurement": "fLuc-190-NS MaxFold", "setting": "[3]; AVERAGE (S1 File)", "value": 180.8}, {"measurement": "fLuc-190-NS EC5X", "setting": "[3]; [8]", "value": 0.1430}, {"measurement": "fLuc-190-NS EC2X", "setting": "[3]; cell-free, average ± SD", "value": "0.045 ± 0.011", "unit": "µM"}, {"measurement": "fLuc-190-NS EC2X", "setting": "[3]; [7]", "value": "0.0389 µM and 0.0393 µM and 0.0578 µM"}, {"measurement": "fLuc-190-NS MaxFold", "setting": "[3]; [7]", "value": "172.62 and 163.42 and 206.48"}, {"measurement": "fLuc-190-NS EC5X", "setting": "[3]; [9]", "value": "0.1461 and 0.1276 and 0.1554"}, {"measurement": "CC50", "setting": "[4]; read-out: Neuromast (CC50), zebrafish embryos 5 dpf, 24 hours exposure, maximum of two measurements", "value": "8 ± 0.1", "unit": "µM"}, {"measurement": "CC50", "setting": "[4]; read-out: Neuromast CC50, AVERAGE (S1 File)", "value": 7.9, "unit": "µM"}, {"measurement": "CC50", "setting": "[4]; read-out: Neuromast CC50, individual determinations (S1 File)", "value": 7.8, "unit": "µM"}, {"measurement": "tGFP-542X EC2X", "setting": "[5]; 293H cells, 24 hours, average ± SD", "value": "38 ± 12", "unit": "µM"}, {"measurement": "tGFP-542X EC2X", "setting": "[5]; AVERAGE (S1 File)", "value": 38.2, "unit": "µM"}, {"measurement": "tGFP-542X Maxfold", "setting": "[5]; AVERAGE (S1 File)", "value": 110.3}, {"measurement": "tGFP-542X EC5X", "setting": "[5]; [8]", "value": 109.2}, {"measurement": "tGFP-542X EC2X", "setting": "[5]; [7]", "value": "25 µM and 46 µM and 44 µM"}, {"measurement": "tGFP-542X Maxfold", "setting": "[5]; [7]", "value": "176 and 74 and 81"}, {"measurement": "tGFP-542X EC5X", "setting": "[5]; [9]", "value": "67 and 132 and 128"}, {"measurement": "tGFP-542X Maxfold", "setting": "[5]; maximum readthrough above background, average ± SD", "value": "110 ± 57", "unit": "fold"}]}
